Test results: paper PMC9839694, “Genetic basis of thiaminase I activity in a vertebrate, zebrafish Danio rerio” (Scientific Reports, 2023)
Counter-ions that a name gives are not always drawn.

Tests used:
[1] = target: T1, zebrafish TenA-like thiaminase I (NP_001314821.1) (Danio rerio, UniProt A0A0R4IDF2); experiment: in-gel thiaminase I activity staining (diazo-coupling) after electrophoresis; format: biochemical; conditions: 0.89 mM thiamine-HCl with a co-substrate, 25 mM sodium phosphate, 37 °C
T1 construct: gene teni.1; synthetic gene in pET52b, expressed in E. coli Rosetta 2(DE3)pLysS, soluble lysate fraction; oligomer 25 to 100 kDa native
T1 sequence (A0A0R4IDF2 22-223): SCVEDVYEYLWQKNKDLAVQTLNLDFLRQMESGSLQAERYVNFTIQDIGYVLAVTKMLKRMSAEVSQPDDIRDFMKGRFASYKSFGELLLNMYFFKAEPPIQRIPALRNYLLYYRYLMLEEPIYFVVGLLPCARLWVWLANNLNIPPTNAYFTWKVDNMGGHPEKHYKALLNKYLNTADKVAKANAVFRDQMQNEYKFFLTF

[2] = target: T2, Paenibacillus thiaminolyticus thiaminase I (WP_087440168) (Paenibacillus thiaminolyticus, UniProt B0FJ10); experiment: as above; format: biochemical; conditions: 0.89 mM thiamine-HCl with a co-substrate, 25 mM sodium phosphate, 37 °C; recombinant positive control
T2 construct: gene bcmE; native enzyme in concentrated culture supernatant (strain 8188), and recombinant positive control from synthetic gene in pET52b in E. coli; 42 kDa monomer
T2 sequence (B0FJ10 31-409): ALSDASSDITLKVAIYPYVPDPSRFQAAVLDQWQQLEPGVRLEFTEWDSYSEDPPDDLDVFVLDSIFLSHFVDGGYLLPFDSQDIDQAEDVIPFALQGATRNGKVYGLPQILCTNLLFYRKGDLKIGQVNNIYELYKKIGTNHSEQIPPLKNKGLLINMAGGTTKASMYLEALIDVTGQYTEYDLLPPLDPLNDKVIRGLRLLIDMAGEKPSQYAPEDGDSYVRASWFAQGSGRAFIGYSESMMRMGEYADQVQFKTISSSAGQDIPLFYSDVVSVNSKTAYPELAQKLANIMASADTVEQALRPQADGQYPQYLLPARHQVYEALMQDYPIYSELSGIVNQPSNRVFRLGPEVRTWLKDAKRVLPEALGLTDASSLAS

Cc1ncc(C[n+]2csc(CCO)c2C)c(N)n1 [thiamine-HCl]
in-gel thiaminase I activity staining (diazo-coupling) after electrophoresis [1]: expressed in the soluble fraction of the protein extract and showed thiaminase I activity | in-gel thiaminase I activity staining (diazo-coupling) after electrophoresis [2]: stained for activity showing thiamine degradation as clear areas
